Measurements as given in patent US9364496B2 (ONCOGENEX TECHNOLOGIES INC., priority 2013, dated 2016).
Several values for one entry are separate records, joined by “and”; a condition that tells them apart may be missing. Equal entries are not always repeated. Marks after values point to notes of the source that are not given here. Oligonucleotides are written 5' to 3', each unit as a sugar letter and its base; * is a phosphorothioate linkage, no mark a phosphodiester; rarer units and linkages stand in square brackets, end groups in braces. Plain capitals give the bases only. e = 2'-O-(2-methoxyethyl) (MOE); [5mC] = 5-methylcytosine; d = 2'-deoxy (DNA)

Tested on: RPMI 8226 (human myeloma) xenograft
Test: In vivo activity of custirsen with Velcade, RPMI 8226 xenograft (Example 14)
Settings: for % of baseline / Δ %: weight
Description: The cells were implanted subcutaneously into female SCID mice with 7×10^6 cells inoculum.
Tumors and body weights were measured weekly until termination of the study on day 71. Response to treatment was evaluated for tumor growth inhibition (TGI) and tumor growth delay (TGD).
70 CB.17 SCID female mice, 4-6 weeks old, 16-20 grams, obtained from Harlan animal breeding center.
Sample from the cell suspension was taken for counting (0.3 ml in duplicates for CEDEX) before spun down. Cell viability was 85.6% and live cell concentration was 167×10^5 cells/ml. The pellet was resuspended in HBSS to a final volume of 8 ml.
Tumors were implanted subcutaneously with RPMI-8226 cells into the right flank of the mouse on Day 0. Each animal received a s.c. injection 7×10^6 cells in 0.1 ml suspension. On day 20, mice were sorted by the optimal tumor volume ([…]) and were allocated into 5 groups of 10 mice. Mice were individually tagged and their tumor volume and body weight were monitored weekly during the study. Tumor size was measured by caliper and calculated using the formula: […]
The treatment started on […] (0.2 ml per 20 grams v/w) and continued till day 52, after which the remaining mice were left for observation until day 71.

[1] = Custirsen 40 mg/kg ip qd*5, twk, day 51
[2] = OGX 40 ip qd*5, twk, Day 48, group mean
[3] = OGX 40 ip qd*5, twk, Day 48, individual mice, listed as OGX
[4] = OGX 40 ip qd*5, twk, Day 51, group mean
[5] = OGX 40 ip qd*5, twk, Day 51, individual mice, listed as OGX
[6] = OGX 40 ip qd*5, twk, Day 58, individual mice, listed as OGX
[7] = OGX 40 ip qd*5, twk, Day 63, individual mice, listed as OGX
[8] = OGX 40 ip qd*5, twk, earlier day (day not given), group mean
[9] = OGX 40 ip qd*5, twk, earlier day (day not given), group mean, tumor
[10] = OGX 40 ip qd*5, twk, earlier day (day not given), individual mouse, listed as OGX
[11] = OGX 40 ip qd*5, twk, earlier day (day not given), individual mouse, tumor, listed as OGX
[12] = OGX 40 ip qd*5, twk, group Mean, n 9
[13] = OGX 40 ip qd*5, twk, group Mean, n 9, vs Day 20

In the case of “Custirsen: anti-clusterin antisense oligonucleotide CAGCAGCAGAGTCTTCATCAT, phosphorothioate backbone, 2′-O-methoxyethyl at nucleotides 1-4 and 18-21, 5-methylcytosines at 1, 4, 19 (antisense e[5mC]*eA*eG*e[5mC]*dA*dG*dC*dA*dG*dA*dG*dT*dC*dT*dT*dC*dA*eT*e[5mC]*eA*eT; listed as Homo sapiens)”, the “Max BW (mean) reduction” value (Custirsen 40 mg/kg ip qd*5, twk, day 34) was −4.7%, the “% TGI day 51” value [1] was 46* % and the “No. of CR” value [1] was 0. For the same substance, the “No. of PR” value [1] was 0, the “No. of TRD” value [1] was 1 and the “No. og nTRD” value [1] was 0. The “Δ mean tumor volume, (mean ± se)” value [1] was 667 ± 87, the “% TGI day 51” value (Custirsen 40 mg/kg ip qd*5, twk, day 51, listed as Custersin) was 46% and the volume [2] was 649.2. For the same substance, the weight [2] was 19.8, the “Δ % (weight)” value [2] was 5.3% and the Δ volume [2] was 503.8. For the same substance, the Δ weight [2] was 1.0, the “% of baseline (weight)” value [3] was 105.6% and 110.6% and 103.7% and 103.8% and 102.1% and 113.0% and 103.2% and 101.2% and the volume [3] was 495 and 354 and 689 and 763 and 717 and 1076 and 483 and 593 and 671. For the same substance, the weight [3] was 18.73 and 18.93 and 21.36 and 20.43 and 19.03 and 20.83 and 20.79 and 18.98 and 19.13, the “Δ % (weight)” value [3] was 5.6% and 10.6% and 3.7% and 3.8% and 2.1% and 13.0% and 4.2% and 3.2% and 1.2% and the Δ volume [3] was 371.9 and 229.1 and 550.6 and 621.8 and 571.9 and 925.7 and 329.0 and 431.2 and 502.7. The Δ weight [3] was 1.0 and 1.8 and 0.8 (3×) and 0.4 and 2.4 and 0.6 and 0.2, the volume [4] was 812.8 and the weight [4] was 19.8. The “Δ % (weight)” value [4] was 5.3%, the Δ volume [4] was 667.3 and the Δ weight [4] was 1.0. The “% of baseline (weight)” value [5] was 103.8% and 109.8% and 102.5% and 102.7% and 114.2% and 100.4%, the volume [5] was 687 and 392 and 817 and 923 and 1031 and 1324 and 603 and 734 and 804 and the weight [5] was 18.40 and 18.79 and 21.71 and 20.17 and 19.13 and 21.06 and 20.78 and 18.47 and 19.87. The “Δ % (weight)” value [5] was 3.8% and 9.8% and 5.4% and 2.5% and 2.7% and 14.2% and 4.2% and 0.4% and 5.1%, the Δ volume [5] was 563.6 and 267.5 and 678.0 and 781.6 and 885.6 and 1173.4 and 448.7 and 571.8 and 635.5 and the Δ weight [5] was 0.7 and 1.7 and 1.1 and 0.5 (2×) and 2.6 and 0.8 and 0.1 and 1.0. The “% of baseline (weight)” value [6] was 105.6% and 110.0% and 108.4%, the volume [6] was 797 and 560 and 1319 and the weight [6] was 18.72 and 18.84 and 22.31. For the same substance, the “Δ % (weight)” value [6] was 5.6% and 10.0% and 8.4%, the Δ volume [6] was 673.0 and 435.6 and 1180.5 and the Δ weight [6] was 1.0 and 1.7 (2×). The “% of baseline (weight)” value [7] was 112.4% and 108.7%, the volume [7] was 1127 and 848 and 2000 and the weight [7] was 18.57 and 19.25 and 22.39. For the same substance, the “Δ % (weight)” value [7] was 4.7% and 12.4% and 8.7%, the Δ volume [7] was 1003.4 and 723.2 and 1861.0 and the Δ weight [7] was 0.8 and 2.1 and 1.8. The weight [8] was 20.3, the Δ weight [8] was 1.5 and the volume [9] was 1278.9. The Δ volume [9] was 1133.5, the “% of baseline” value [8] was 108.0% and the Δ % [8] was 8.0%. For the same substance, the weight [10] was 20.77 and 19.53 and 21.42 and 21.45 and 19.51 and 20.43, the Δ weight [10] was 1.1 (2×) and 0.9 and 3.0 and 1.5 (2×) and the volume [11] was 1418 and 1693 and 1970 and 1060 and 1218 and 1475. The Δ volume [11] was 1277.2 and 1547.4 and 1819.3 and 905.2 and 1056.5 and 1306.4, the “% of baseline” value [10] was 116.2% and 107.5% and 108.1% and the Δ % [10] was 5.5% and 4.8% and 16.2% and 7.5% and 6.0% and 8.1%. For the same substance, the “Day 41 % of baseline (weight)” value [12] was 101.5%, the “Day 41 volume” value [12] was 395.4 and the “Day 41 weight” value [12] was 19.1. For the same substance, the “Day 45 volume” value [12] was 527.3, the “Day 45 weight” value [12] was 19.9 and the “Day 41 Δ % (weight)” value [13] was 1.5%. For the same substance, the “Day 41 Δ volume” value [13] was 249.9, the “Day 41 Δ weight” value [13] was 0.3 and the “Day 45 Δ % (weight)” value [13] was 5.6%.
